Laboratory results as given in paper PMC11002875, “Linking triphenylphosphonium cation to a bicyclic hydroquinone improves their antiplatelet effect via the regulation of mitochondrial function” (Redox Biology, 2024).

Tests used:
Washed platelets [1] = test: Cellular apoptosis (externalization of phosphatidylserine, annexin V); assay type: cell-based, Human; conditions: 1, 2, 5, 10 and 20 μM; 15 min
Protocol: (§1) Human platelet purification. The blood sample was obtained from voluntary donors (10 days without antiplatelet medication) who agreed to participate after signing informed consent (Scientific Ethics Committee of the University of Talca N° 04–2022). Briefly, blood anticoagulated with acid-citrate-dextrose (ACD) was obtained in a 4:1 v/v ratio. The sample was centrifuged for 12 min at 250 g to obtain platelet-rich plasma (PRP). Subsequently, the PRP was centrifuged for 8 min at 900 g to obtain the platelet pellet. The plasma supernatant was removed, and the platelets were resuspended in Tyrodes buffer without calcium plus ACD in a ratio of 5:1 v/v. The platelets were centrifuged once more for 8 min at 900 g and the pellet was resuspended in Tyrodes buffer without calcium. Finally, the platelets were counted (Mindray BC-3000 Plus hematology counter, Japan), adjusted to the desired concentration, and used within 3 h.
Cellular apoptosis (externalization of phosphatidylserine). Washed platelets (200-250 × 10^6 platelets/mL) were incubated with the NP4 compound (1, 2, 5, 10 and 20 μM) for 15 min at 37 °C. Then 15 μL of the reaction was mixed with 25 μL of annexin V binding buffer (1x) and labeled with 2 μL of annexin V FITC (BD Pharmingen, FITC Annexin V Apoptosis Detection Kit I). […]

platelet-rich plasma = test: Platelet aggregation in platelet-rich plasma; assay type: cell-based, Human; conditions: collagen 2 μg/mL; PRP
Protocol: Platelet aggregation in platelet-rich plasma. The blood sample was obtained from voluntary donors (10 days without antiplatelet medication) who agreed to participate after signing informed consent (Scientific Ethics Committee of the University of Talca N° 04–2022). Venous blood was collected by phlebotomy into 3.2% sodium citrate tubes. The tubes were centrifuged at 250 g for 12 min to obtain PRP. After reserving the PRP, the tubes were centrifuged again at 900 g for 10 min to obtain platelet-poor plasma (PPP). For the aggregation reaction, PRP was adjusted to 200-250 × 10^6 platelets/mL with PPP [[63], [64], [65]]. Platelet counting was performed in a counter (Mindray BC-3000 Plus hematology counter, Japan). The samples were preincubated with the compounds under study for 5 min at 37 °C in the aggregometer (Agg RAM- Helena Biosciences). Aggregation was initiated with collagen 2 μg/mL and the reaction was evaluated for 5 min at 37 °C in shaking at 1000 rpm.

Washed platelets [2] = test: Mitochondrial membrane potential (TMRM); assay type: cell-based, Human; conditions: compounds 1, 5 and 10 μM, 20 min
Protocol: as §1
Mitochondrial membrane potential (ΔΨm). Washed platelets (50 × 10^6 platelets/mL) were labeled with a 100 nM tetramethylrhodamine methyl ester (TMRM) probe and incubated with compounds (1, 5 and 10 μM) for 20 min at 37 °C. The sample was acquired in the BD Facs Lyric flow cytometer (BD Biosciences, USA). Representative dot plots are available in Supplementary Figs. 12, 24, and 25. Carbonyl cyanide 4-(trifluoromethoxy) phenylhydrazone (FCCP) 1 μM was used as a control for decreasing the mitochondrial membrane potential.

Washed platelets [3] = test: Intraplatelet (cytosolic) ROS levels (DHE); assay type: cell-based, Human; conditions: compounds 1, 5 and 10 μM, 10 min
Protocol: as §1
Intraplatelet ROS levels. Washed platelets (50 × 10^6 platelets/mL) were labeled with the dihydroethidium (DHE) probe 10 μM and incubated for 20 min at 37 °C protected from light. After, compounds (1, 5, and 10 μM) were added to the platelets and incubated for 10 min at 37 °C. The sample was acquired in the BD Facs Lyric flow cytometer (BD Biosciences, USA). Representative dot plots are available in Supplementary Figs. 18 and 27. As a positive control for ROS, antimycin A 20 μM was used.

Cc1c(C)c(O)c2c(c1O)C(=O)C(CCCC[P+](c1ccccc1)(c1ccccc1)c1ccccc1)=CC2(C)C.[Br-] [NP4, (4-(5,8-dihydroxy-4,4,6,7-tetramethyl-1-oxo-1,4-dihydronaphthalen-2-yl)butyl)triphenyl phosphonium bromide]
Apoptosis (phosphatidylserine externalization) (Washed platelets [1]): none of the concentrations evaluated for NP4 showed significant effects | Platelet aggregation in platelet-rich plasma (platelet-rich plasma): significant decrease | Mitochondrial membrane potential (ΔΨm) (Washed platelets [2]): significantly decrease | Cytosolic total ROS levels (Washed platelets [3]): neither NP4 nor NH4 significantly affected | melting point: 282 °C (dec.)
